Several values for one entry are separate records, joined by “and”; a condition that tells them apart may be missing. Equal entries are not always repeated. Where two headings read alike, the source gives them in different places.
How the values were obtained:
[1] = test system: patient-derived ETP-ALL and T-ALL xenografts; assay: Relative viability and LC50 on patient-derived ETP-ALL and T-ALL xenografts, 48 h; type: cell-based, human; parameters: Relative % viable cells: unit of the concentration uncertain; conditions: for CC50: Homo sapiens, read-out: LC50 Dynole 34-2
Description: patient-derived (a ) ETP- ALL1 and (b) T-ALL 2 xenografts treated with increasing concentration of […]
Viability was normalized to vehicle-treated cells with experiments performed in duplicates. Human CD34-positive (CD34+) hematopoietic stem and progenitors from healthy donors (N=3) were used as controls. […]

[2] = test system: IL-7R and pStat5 in Lmo2^Tg DN3a cells; assay: IL-7R internalization assay and pStat5 in Lmo2^Tg DN3a cells after IL-7; type: cell-based, mouse; conditions: +IL-7, 0.2 μM Dynole 34-2
Method: Phosphoflow analysis was performed as previously described. Briefly, 2 × 10^6 cells stained for surface markers were subsequently resuspended into PBS 1× + 4% v/v paraformaldehyde and incubated for 10 min at 4 °C for fixation. Fixed cells were washed twice using PBS 1×, then resuspended in pre-chilled at −20 °C Perm Buffer III (BD Pharmingen) and incubated 30 min at 4 °C for permeabilization. Cells were washed twice using PBS 1× and incubated overnight at 4 °C in PBS 1× + 2% v/v fetal calf serum (FCS) with Cell Signalling purified antibodies (Genesearch Pty Ltd, Arundel QLD, Australia) against pSTAT5 (Tyr694; #9359), phospho-p38 MAPK (Thr180/Tyr182; #4511), phospho-p44/42 (Erk1/2; #9102), phospho-S6 (Ser235/236; #4856) and phospho-Akt (Ser473; #9271) or isotype control. […] Fluorescence-activated cell sorting (FACS) analysis was performed using LSRII and LSR Fortessa cytometers, following the gating strategies described in Supplementary Fig. 11. […]
For in vitro IL-7 stimulation assays, cells were starved in serum-free DMEM at 37 °C, then incubated with either vehicle or Dynole 34-2 or Ruxolitinib (INCB018424; #S1378, Selleckchem), or DAPT (GSI-IX; #S2215, Selleckchem) resuspended in DMSO for 1 h. […] The analysis was performed in triplicate and the mean fluorescence intensity (MFI) observed without stimulation was reported as 100%.

SMILES: CCCCCCCCNC(=O)C(C#N)=Cc1cn(CCCN(C)C)c2ccccc12 [Dynole 34-2, 2-Cyano-N-octyl-3-(1-(3-dimethylaminopropyl)-1H-indol-3-yl)-acrylamide]
- Relative % viable cells ([1]; ALL8, dose 0.04 (unit uncertain)): 90.4% and 94.4%
- Relative % viable cells ([1]; ALL8, dose 0.2 (unit uncertain)): 80.81% and 92.6%
- Relative % viable cells ([1]; ALL8, dose 1 (unit uncertain)): 72.11% and 72.9% and 110.2%
- Relative % viable cells ([1]; ALL8, dose 5 (unit uncertain)): 59.7% and 59.2%
- Relative % viable cells ([1]; ALL8, dose 125 (unit uncertain)): 1.3% and 3.1% and 2.3%
- Relative % viable cells ([1]; ALL29, dose 0.04 (unit uncertain)): 101.7% and 96.7%
- Relative % viable cells ([1]; ALL29, dose 0.2 (unit uncertain)): 96.7% and 101.5%
- Relative % viable cells ([1]; ALL29, dose 5 (unit uncertain)): 40.7% and 42.8%
- Relative % viable cells ([1]; ALL29, dose 125 (unit uncertain)): 9.1% and 6.3% and 3%
- Relative % viable cells ([1]; ALL33, dose 0.04 (unit uncertain)): 93.7% and 90.9%
- Relative % viable cells ([1]; ALL33, dose 0.2 (unit uncertain)): 85.9%
- Relative % viable cells ([1]; ALL33, dose 5 (unit uncertain)): 38.4% and 45.6%
- Relative % viable cells ([1]; ALL33, dose 25 (unit uncertain)): 25.8% and 17.5%
- Relative % viable cells ([1]; ALL33, dose 125 (unit uncertain)): 0%
- Relative % viable cells ([1]; ETP1, dose 0.04 (unit uncertain)): 101.2%
- Relative % viable cells ([1]; ETP1, dose 0.2 (unit uncertain)): 100.4% and 100%
- Relative % viable cells ([1]; ETP1, dose 1 (unit uncertain)): 99.9% and 99.8%
- Relative % viable cells ([1]; ETP1, dose 5 (unit uncertain)): 98.2%
- Relative % viable cells ([1]; ETP1, dose 25 (unit uncertain)): 36.3% and 35.6%
- Relative % viable cells ([1]; ETP1, dose 125 (unit uncertain)): 7% and 0%
- Relative % viable cells ([1]; ETP5, dose 0.04 (unit uncertain)): 102.7%
- Relative % viable cells ([1]; ETP5, dose 0.2 (unit uncertain)): 95.7% and 97.2%
- Relative % viable cells ([1]; ETP5, dose 1 (unit uncertain)): 97.7%
- Relative % viable cells ([1]; ETP5, dose 5 (unit uncertain)): 90.9% and 92.8%
- Relative % viable cells ([1]; ETP5, dose 25 (unit uncertain)): 25.9% and 13.9%
- Relative % viable cells ([1]; ETP5, dose 125 (unit uncertain)): 2.9% and 6.9% and 3.5%
- Relative % viable cells ([1]; ETP12, dose 0.04 (unit uncertain)): 107.6% and 104.3%
- Relative % viable cells ([1]; ETP12, dose 0.2 (unit uncertain)): 95.8% and 90.7%
- Relative % viable cells ([1]; ETP12, dose 5 (unit uncertain)): 77.5%
- Relative % viable cells ([1]; ETP12, dose 25 (unit uncertain)): 2.7% and 1.6% and 1.1%
- Relative % viable cells ([1]; ETP12, dose 125 (unit uncertain)): 2.6% and 7.9% and 2%
- Relative % viable cells ([1]; ETP13, dose 0.04 (unit uncertain)): 91.2% and 89.4%
- Relative % viable cells ([1]; ETP13, dose 0.2 (unit uncertain)): 91.8% and 87.5%
- Relative % viable cells ([1]; ETP13, dose 1 (unit uncertain)): 90.4% and 102.1%
- Relative % viable cells ([1]; ETP13, dose 5 (unit uncertain)): 60.7% and 66.4% and 84.4%
- Relative % viable cells ([1]; ETP13, dose 25 (unit uncertain)): 4.2% and 3.5%
- Relative % viable cells ([1]; ETP13, dose 125 (unit uncertain)): 1.5% and 2.3% and 0.7%
- Relative % viable cells ([1]; ETP14, dose 0.04 (unit uncertain)): 74% and 80.7% and 108.4%
- Relative % viable cells ([1]; ETP14, dose 0.2 (unit uncertain)): 80.8% and 85.9%
- Relative % viable cells ([1]; ETP14, dose 1 (unit uncertain)): 56.6% and 73.2% and 82.4%
- Relative % viable cells ([1]; ETP14, dose 5 (unit uncertain)): 58.1% and 85.7% and 56%
- Relative % viable cells ([1]; ETP14, dose 25 (unit uncertain)): 10.8% and 11.5%
- CC50 ([1]; ALL8, Relapse, Mature): 5.76 µM
- CC50 ([1]; ALL29, Diagnosis, Mature): 4.51 µM
- CC50 ([1]; ALL33, Diagnosis, Mature): 2.43 µM
- CC50 ([1]; ETP1, Diagnosis, ETP): 19.9 µM
- CC50 ([1]; ETP5, Diagnosis, ETP): 49.9 µM
- CC50 ([1]; ETP12, Diagnosis, ETP): 4.26 µM
- CC50 ([1]; ETP13, Diagnosis, ETP): 7.05 µM
- CC50 ([1]; ETP14, Diagnosis, ETP): 5.25 µM
- IL-7R (MFI) [2]: 14813 MFI and 16581 MFI and 16466 MFI
- pStat5 (MFI) [2]: 2583 MFI and 1903 MFI and 3336 MFI and 3007 MFI
